Test results from article PMC7377239, “Cardiovascular Effects of Polychlorinated Biphenyls and Their Major Metabolites” (Environmental Health Perspectives, 2020).
Counter-ions that a name gives are not always drawn. Like-named read-outs stand apart in the source and are kept apart here.

How the values were obtained:
[1] = tested on: iCell endothelial cells (human iPSC-derived ECs); test: High-content imaging cytotoxicity in iCell endothelial cells, 24 h; format: cell-based; settings: Homo sapiens, Endothelial cell, iPSC-EC, 24 hr; for viability at 0.1 µM / activity at 0.1 µM: 0.10 µM; for minimal effective concentration: top concentration 100.00 µM
Outline: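 Human iPSC-derived endothelial cells (passages 1–5) were grown to a fibronectin-coated monolayer, then exposed 24 h at 37 °C with 0.5% DMSO vehicle. Staining was Hoechst 33342, MitoTracker Orange and calcein AM, read by high-content imaging. Point of departure came from 4-parameter logistic fits, with a 1-SD vehicle cutoff and 100 µM as the top concentration.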

HUVECs = test: High-content imaging cytotoxicity in HUVECs, 24 h; format: cell-based, human; settings: Homo sapiens, HUVEC, 24 h, HUVECs; for viability at 0.01 µM / activity at 0.01 µM / viability at 0.1 µM / activity at 0.1 µM / viability at 1 µM / activity at 1 µM / viability at 10 µM / activity at 10 µM / viability at 100 µM / activity at 100 µM: 0.00 µM = 100.00; for viability at 0.1 µM / activity at 0.1 µM: 0.10 µM; for minimal effective concentration: top concentration 100.00 µM
Outline: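 HUVECs (passages 1–5) grown to monolayer over 3–5 d, then exposed 24 h at 37°C, 5% CO2; stained with Hoechst 33342, MitoTracker Orange and calcein AM and imaged at 10×. Readouts normalized to 0.5% DMSO vehicle, four-parameter logistic fit; POD at one-SD cutoff, 100μM assigned when no response.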

[2] = 0.00 µM control = 100.00, read-out: endo.cyto.24hr
[3] = 0.00 µM control = 100.00, read-out: endo.mito.24hr
[4] = 0.00 µM control = 100.00, read-out: endo.mitoint.24hr
[5] = 0.00 µM control = 100.00, read-out: endo.nma.24hr
[6] = 0.00 µM control = 100.00, read-out: endo.tc.24hrs
[7] = 24 hr, read-out: huvec.cyto.24hr
[8] = 24 hr, read-out: huvec.mito.24hr
[9] = 24 hr, read-out: huvec.mitoint.24hr
[10] = 24 hr, read-out: huvec.nma.24hr
[11] = 24 hrs, read-out: huvec.tc.24hrs

## O=S(=O)(O)Oc1cc(Cl)ccc1-c1ccccc1 [2-yl PCB 3 sulfate]
[1]; [2]
  viability at 0.01 µM: 93%
  viability at 0.1 µM: 97.1%
  viability at 1 µM: 97.8%
  viability at 10 µM: 97.1%
  viability at 100 µM: 102%
[1]; [3]
  activity at 0.01 µM: 93.3%
  activity at 0.1 µM: 97%
  activity at 1 µM: 98.5%
  activity at 10 µM: 97.8%
  activity at 100 µM: 102%
[1]; [4]
  activity at 0.01 µM: 114%
  activity at 0.1 µM: 101%
  activity at 1 µM: 104%
  activity at 10 µM: 118%
  activity at 100 µM: 99.3%
[1]; [5]
  activity at 0.01 µM: 103%
  activity at 0.1 µM: 100%
  activity at 1 µM: 99.6%
  activity at 10 µM: 99.1%
  activity at 100 µM: 96.5%
[1]; [6]
  viability at 0.01 µM: 93%
  viability at 0.1 µM: 97.1%
  viability at 1 µM: 97.8%
  viability at 10 µM: 97.2%
  viability at 100 µM: 102%
[1]; read-out: endo.cyto.24hr POD
  minimal effective concentration: 100 µM
[1]; read-out: endo.mito.24hr POD
  minimal effective concentration: 100 µM
[1]; read-out: endo.mitoint.24hr POD
  minimal effective concentration: 100 µM
[1]; read-out: endo.nma.24hr POD
  minimal effective concentration: 100 µM
[1]; read-out: endo.tc.24hrs POD
  minimal effective concentration: 100 µM
HUVECs; [7]
  viability at 0.01 µM: 95%
  viability at 0.1 µM: 105%
  viability at 1 µM: 95%
  viability at 10 µM: 83.5%
  viability at 100 µM: 93%
HUVECs; [8]
  activity at 0.01 µM: 93.7%
  activity at 0.1 µM: 105%
  activity at 1 µM: 94.6%
  activity at 10 µM: 83.3%
  activity at 100 µM: 92.1%
HUVECs; [9]
  activity at 0.01 µM: 96.9%
  activity at 0.1 µM: 103%
  activity at 1 µM: 92.6%
  activity at 10 µM: 97.9%
  activity at 100 µM: 93.3%
HUVECs; [10]
  activity at 0.01 µM: 100%
  activity at 0.1 µM: 95.3%
  activity at 1 µM: 95.4%
  activity at 10 µM: 97.9%
  activity at 100 µM: 96%
HUVECs; 24 hr, read-out: huvec.cyto.24hr POD
  minimal effective concentration: 100 µM
HUVECs; 24 hr, read-out: huvec.mito.24hr POD
  minimal effective concentration: 100 µM
HUVECs; 24 hr, read-out: huvec.mitoint.24hr POD
  minimal effective concentration: 100 µM
HUVECs; 24 hr, read-out: huvec.nma.24hr POD
  minimal effective concentration: 100 µM
HUVECs; [11]
  viability at 0.01 µM: 95%
  viability at 0.1 µM: 105%
  viability at 1 µM: 95%
  viability at 10 µM: 83.5%
  viability at 100 µM: 93%
HUVECs; 24 hrs, read-out: huvec.tc.24hrs POD
  minimal effective concentration: 100 µM
